Where two headings read alike, the source gives them in different places.
Target: T1, H. sapiens SLC2A9 variant 2 (GLUT9B) (Homo sapiens, UniProt Q9NRM0)
T1 sequence (Q9NRM0 1-511 isoform Q9NRM0-2): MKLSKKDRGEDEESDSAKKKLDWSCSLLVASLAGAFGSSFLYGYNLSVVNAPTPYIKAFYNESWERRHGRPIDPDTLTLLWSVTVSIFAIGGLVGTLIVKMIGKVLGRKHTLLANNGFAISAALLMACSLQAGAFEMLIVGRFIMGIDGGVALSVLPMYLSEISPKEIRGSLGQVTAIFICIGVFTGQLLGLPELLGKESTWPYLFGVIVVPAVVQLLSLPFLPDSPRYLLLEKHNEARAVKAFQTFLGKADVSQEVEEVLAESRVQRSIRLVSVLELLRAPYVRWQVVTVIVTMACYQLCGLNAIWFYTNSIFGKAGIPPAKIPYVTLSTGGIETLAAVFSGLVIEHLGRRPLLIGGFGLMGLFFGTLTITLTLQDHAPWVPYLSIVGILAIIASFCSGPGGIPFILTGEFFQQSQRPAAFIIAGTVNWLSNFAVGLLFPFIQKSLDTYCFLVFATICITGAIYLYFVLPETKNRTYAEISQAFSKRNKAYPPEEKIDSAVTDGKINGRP
Test: GLUT9 functional assay: uric acid uptake in HEK293T cells, allantoin formation by MS/MS as proxy of GLUT9B inhibition
Assay type: cell-based
Details: HEK293T cells stably expressing GLUT9B and transiently A. oryzae uricase, uric acid 0.3 mM, 37° C.
Procedure, shortened: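 HEK293T cells stably expressing human GLUT9B and transiently expressing A. oryzae uricase, exposed across a 12-point curve to 0.3 mM uric acid (Km) in sodium gluconate buffer pH 7.4 for 15 or 60 min at 37° C. Allantoin in lysates quantified by RapidFire MS/MS (positive ion) against a matrix-matched standard curve as proxy for uptake.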

[1] = 15 minute assay, read-out: 15 min IC50
[2] = 60 minute assay, read-out: 60 min IC50

SMILES: COCCn1ccc2cc(-c3ncc(COC)nc3N3CCC(C(=O)O)CC3)cc(F)c21 [Compound 50, 1-(3-(7-fluoro-1-(2-methoxyethyl)-1H-indol-5-yl)-6-(methoxymethyl)pyrazin-2-yl)piperidine-4-carboxylic acid]
- IC50 [1]: > 2 µM

SMILES: COCCCc1cnc(-c2cc(F)c3occc3c2)c(N2CCCC(C(=O)O)CC2)n1 (centres unmarked) [Compound 243, 1-(3-(7-fluorobenzofuran-5-yl)-6-(3-methoxypropyl)pyrazin-2-yl)azepane-4-carboxylic acid]
- IC50 [2]: < 0.5 µM

SMILES: COCCCc1cnc(-c2cc(C(F)F)c3occc3c2)c(N2CCC(C(=O)O)CC2)n1 [Compound 240, 1-(3-(7-(difluoromethyl)benzofuran-5-yl)-6-(3-methoxypropyl)pyrazin-2-yl)piperidine-4-carboxylic acid]
- IC50 [2]: < 0.5 µM

SMILES: COCCCc1cnc(-c2ccc3oc(COC)cc3c2)c(N2CCC(C(=O)O)CC2)n1 [Compound 179, 1-(3-(2-(methoxymethyl)benzofuran-5-yl)-6-(3-methoxypropyl)pyrazin-2-yl)piperidine-4-carboxylic acid]
- IC50 [2]: 0.5 to 2 µM

SMILES: O=C(O)CC1CC2(C1)CN(c1nc(CCC(F)(F)F)cnc1-c1ccc3occc3c1)C2 [Compound 101, 2-(2-(3-(benzofuran-5-yl)-6-(3,3,3-trifluoropropyl)pyrazin-2-yl)-2-azaspiro[3.3]heptan-6-yl)acetic acid]
- IC50 [1]: > 2 µM

SMILES: COCCCc1cnc(-c2cc(F)c3occc3c2)c(N2CCC(C(=O)O)CC2)c1 [Compound 168, 1-(2-(7-Fluorobenzofuran-5-yl)-5-(3-Methoxypropyl)Pyridin-3-yl)piperidine-4-carboxylic acid]
- IC50 [1]: < 0.5 µM
- IC50 [2]: < 0.5 µM

SMILES: COCCCc1cnc(-c2cc(F)c3occc3c2)c(N2CCCC(C(=O)O)CC2)c1 (centres unmarked) [Compound 245, 1-(2-(7-Fluorobenzofuran-5-yl)-5-(3-Methoxypropyl)Pyridin-3-yl)azepane-4-carboxylic acid]
- IC50 [2]: < 0.5 µM

SMILES: CC(F)(F)CCc1cnc(-c2ccc3c(c2)OCO3)c(N2CCC(C(=O)O)CC2)n1 [Compound 136]
- IC50 [1]: < 0.5 µM

SMILES: CCCCc1cnc(-c2ccc(F)c(OC)c2)c(N2CCC(C(=O)O)CC2)n1 [Compound 2, 1-(6-Butyl-3-(4-Fluoro-3-Methoxyphenyl)Pyrazin-2-yl)Piperidine-4-carboxylic acid]
- IC50 [1]: > 2 µM

SMILES: CCCCCc1cnc(-c2cc(F)c3occc3c2)c(N2CCC(C(=O)O)CC2)n1 [Compound 147, 1-(3-(7-fluorobenzofuran-5-yl)-6-pentylpyrazin-2-yl)piperidine-4-carboxylic acid]
- IC50 [1]: < 0.5 µM

SMILES: COCCCc1cnc(-c2ccc3c(c2)OCO3)c(N2CC(OC)(C(=O)O)C2)c1 [Compound 252, 1-(2-(benzo[d][1,3]dioxol-5-yl)-5-(3-methoxypropyl)pyridin-3-yl)-3-methoxyazetidine-3-carboxylic acid]
- IC50 [2]: > 2 µM

SMILES: O=C(O)C1CCN(c2nc(CCC(F)(F)F)cnc2-c2ccncc2)CC1 [Compound 105, 1-(3-(pyridin-4-yl)-6-(3,3,3-trifluoropropyl)pyrazin-2-yl)piperidine-4-carboxylic acid]
- IC50 [1]: > 2 µM

SMILES: O=C(O)C1CCN(c2nc(CCCC(F)(F)F)cnc2-c2ccc3c(c2)CCCO3)CC1 [Compound 112, 1-(3-(chroman-6-yl)-6-(4,4,4-trifluorobutyl)pyrazin-2-yl)piperidine-4-carboxylic acid]
- IC50 [1]: 0.5 to 2 µM

SMILES: COCCCc1cnc(-c2cc(F)c3c(c2)CCO3)c(N2CCC(C)(C(=O)O)CC2)n1 [Compound 192, 1-(3-(7-fluoro-2,3-dihydrobenzofuran-5-yl)-6-(3-methoxypropyl)pyrazin-2-yl)-4-methylpiperidine-4-carboxylic acid]
- IC50 [2]: < 0.5 µM

SMILES: O=C(O)C1CCN(c2nc(COCC(F)(F)F)cnc2-c2ccc(Cl)c(OC(F)(F)F)c2)CC1 [Compound 58, 1-(3-(4-chloro-3-(trifluoromethoxy)phenyl)-6-((2,2,2-trifluoroethoxy)methyl)pyrazin-2-yl)piperidine-4-carboxylic acid]
- IC50 [1]: > 2 µM

SMILES: CCCCc1cnc(-c2ccc(OC)cc2)c(N2CC3C(C2)C3C(=O)O)n1 (centres unmarked) [Compound 4, 3-(6-Butyl-3-(4-Methoxyphenyl)Pyrazin-2-yl)-3-Azabicyclo[3.1.0]Hexane-6-carboxylic acid]
- IC50 [1]: < 0.5 µM

SMILES: COCCOc1ccc(-c2ncc(CCCC(F)F)nc2N2CCC(C(=O)O)CC2)cc1 [Compound 145, 1-(6-(4,4-difluorobutyl)-3-(4-(2-methoxyethoxy)phenyl)pyrazin-2-yl)piperidine-4-carboxylic acid]
- IC50 [1]: < 0.5 µM

SMILES: CCCCc1cnc(-c2ccc(OC)cc2)c(N2CCN(CC(=O)O)CC2)n1 [Compound 1, 2-(4-(6-Butyl-3-(4-Methoxyphenyl)Pyrazin-2-yl)Piperazin-1-yl)Acetic Acid]
- IC50 [1]: > 2 µM

SMILES: O=C(O)C1CCN(c2nc(CCCCC(F)(F)F)cnc2-c2ccc(OCC3CC3)cc2)CC1 [Compound 153, 1-(3-(4-(cyclopropylmethoxy)phenyl)-6-(5,5,5-trifluoropentyl)pyrazin-2-yl)piperidine-4-carboxylic acid]
- IC50 [1]: < 0.5 µM

SMILES: COCCCc1cnc(-c2cc(F)c3occc3c2)c(N2CCC(O)(C(=O)O)CC2)n1 [Compound 185, 1-(3-(7-fluorobenzofuran-5-yl)-6-(3-methoxypropyl)pyrazin-2-yl)-4-hydroxypiperidine-4-carboxylic acid]
- IC50 [2]: 0.5 to 2 µM

SMILES: COCc1cnc(-c2cc(F)c3occc3c2)c(N2CCC(C(=O)O)CC2)n1 [Compound 49, 1-(3-(7-fluorobenzofuran-5-yl)-6-(methoxymethyl)pyrazin-2-yl)piperidine-4-carboxylic acid]
- IC50 [1]: 0.5 to 2 µM

SMILES: COCCCc1cnc(-c2ccc3c(c2)OCO3)c(N2CC(C(=O)O)C2)c1 [Compound 251, 1-(2-(benzo[d][1,3]dioxol-5-yl)-5-(3-methoxypropyl)pyridin-3-yl)azetidine-3-carboxylic acid]
- IC50 [2]: > 2 µM

SMILES: COCCCc1cnc(-c2ccn3ccnc3c2)c(N2CCC(C(=O)O)CC2)n1 [Compound 208, 1-(3-(imidazo[1,2-a]pyridin-7-yl)-6-(3-methoxypropyl)pyrazin-2-yl)piperidine-4-carboxylic acid]
- IC50 [2]: > 2 µM

SMILES: COCCCc1cnc(-c2cnc3nccn3c2)c(N2CCC(C(=O)O)CC2)n1 [Compound 196, 1-(3-(imidazo[1,2-a]pyrimidin-6-yl)-6-(3-methoxypropyl)pyrazin-2-yl)piperidine-4-carboxylic acid]
- IC50 [2]: > 2 µM

SMILES: COCCCc1cnc(-c2ccc3c(C)[nH]nc3c2)c(N2CCC(C(=O)O)CC2)n1 [Compound 197, 1-(6-(3-methoxypropyl)-3-(3-methyl-2H-indazol-6-yl)pyrazin-2-yl)piperidine-4-carboxylic acid]
- IC50 [2]: > 2 µM

SMILES: CCCCc1cnc(-c2ccc3c(c2)OCO3)c(N2CCC(C(=O)O)CC2)n1 [Compound 45]
- IC50 [1]: < 0.5 µM

SMILES: COCCCc1cnc(-c2ccc3c(c2)OCO3)c(N2CCC(C(=O)O)CC2)n1 [Compound 189, 1-(3-(benzo[d][1,3]dioxol-5-yl)-6-(3-Methoxypropyl)Pyrazin-2-yl)piperidine-4-carboxylic acid]
- IC50 [2]: < 0.5 µM

SMILES: O=C(O)C1CCN(c2nc(CCCCC(F)(F)F)cnc2-c2ccc3c(c2)CCO3)CC1 [Compound 131, 1-(3-(2,3-dihydrobenzofuran-5-yl)-6-(5,5,5-trifluoropentyl)pyrazin-2-yl)piperidine-4-carboxylic acid]
- IC50 [1]: < 0.5 µM

SMILES: O=C(O)C1CCN(c2nc(CCCC(F)(F)F)cnc2-c2ccc(OC(F)F)cc2)CC1 [Compound 159, 1-(3-(4-(difluoromethoxy)phenyl)-6-(4,4,4-trifluorobutyl)pyrazin-2-yl)piperidine-4-carboxylic acid]
- IC50 [1]: 0.5 to 2 µM

SMILES: COCCCc1cnc(-c2cnn3c2OCCC3)c(N2CCC(C(=O)O)CC2)n1 [Compound 209, 1-(3-(6,7-dihydro-5H-pyrazolo[5,1-b][1,3]oxazin-3-yl)-6-(3-methoxypropyl)pyrazin-2-yl)piperidine-4-carboxylic acid]
- IC50 [2]: > 2 µM

SMILES: O=C(O)C1CCN(c2nc(COCC(F)(F)F)cnc2-c2cnc3occc3c2)CC1 [Compound 64, 1-(3-(furo[2,3-b]pyridin-5-yl)-6-((2,2,2-trifluoroethoxy)methyl)pyrazin-2-yl)piperidine-4-carboxylic acid]
- IC50 [1]: > 2 µM

SMILES: O=C(O)C1CCN(c2nc(CCC(F)(F)F)cnc2-c2cc(F)c3occc3c2)CC1 [Compound 61, 1-(3-(7-Fluorobenzofuran-5-yl)-6-(3,3,3-Trifluoropropyl)Pyrazin-2-yl)piperidine-4-carboxylic acid]
- IC50 [1]: < 0.5 µM

SMILES: CCC(F)(F)Cc1cnc(-c2ccc(OCCOC)cc2)c(N2CCC(C(=O)O)CC2)n1 [Compound 148, 1-(6-(2,2-difluorobutyl)-3-(4-(2-methoxyethoxy)phenyl)pyrazin-2-yl)piperidine-4-carboxylic acid]
- IC50 [1]: > 2 µM

SMILES: COCCOc1ccc(-c2ncc(CCC(F)(F)F)nc2N2CCC(C(=O)O)CC2)cn1 [Compound 97, 1-(3-(6-(2-methoxyethoxy)pyridin-3-yl)-6-(3,3,3-trifluoropropyl)pyrazin-2-yl)piperidine-4-carboxylic acid]
- IC50 [1]: > 2 µM

From patent US20250179032A1, “HETEROCYCLIC INHIBITORS OF GLUT9 FOR TREATMENT OF DISEASE” (HORIZON THERAPEUTICS IRELAND DAC, priority 2022, published 2025)
